What all share (assay type): functional
For experiment [1], the system named is Rattus norvegicus. Kind of experiment: Antiedema efficacy was measured in male Sprague-Dawley rats relative to aspirin; activity expressed as percent of aspirin.
For experiment [2], the species on record is Rattus norvegicus. The experiment is described as follows: Compound was tested for 50% inhibition of incidence of lesions (UD50) in rat.
The nature of experiment [3]: Ratio between ulcerogenicity and anti edema activity (UD50/ED25).
Experiment [4] is filed under the species Rattus norvegicus. The experiment is described as follows: Effective dose of compound to produce 25% inhibition in rat; Value ranges from 326-499.

Take `CCCCCCCCCC(=O)OCC(COC(=O)CCCCCCCCC)OC1(C)OC(=O)c2ccccc2O1` (configuration not stated): the Activity in the experiment with Rattus norvegicus [1] came out at 100%. In the experiment listed under Rattus norvegicus [2], this compound yielded a UD50 of 4102 µM/kg. In experiment [3], the Ratio worked out at 10.6.

In the case of `CC(=O)Oc1ccccc1C(=O)O` [ASPIRIN], the Activity in the experiment with Rattus norvegicus [1] was 100%. In the experiment listed under Rattus norvegicus [4], this compound had an ED25 of 402 µM/kg.

`CCCCCCCCCCCCCCCC(=O)OCC(COC(=O)CCCCCCCCCCCCCCC)OC1(C)OC(=O)c2ccccc2O1` (configuration not stated) gave an Activity with Rattus norvegicus [1] of 62%.

In turn, `CC(=O)OCC(COC(C)=O)OC1(C)OC(=O)c2ccccc2O1` (configuration not stated) had an Activity with Rattus norvegicus [1] of 62%.

(Values after ChEMBL document CHEMBL1121620, “Glycerides as prodrugs. 2. 1,3-Dialkanoyl-2-(2-methyl-4-oxo-1,3-benzodioxan-2-yl)glycerides (cyclic aspirin triglycerides) as antiinflammatory agents” (1980).)
